According to the NIST ThermoML archive (doi:10.1016/j.jct.2019.02.011):

Experiment: xn = mol fraction of the nth substance listed
Settings: Liquid, Vibrating tube method

COC(=O)OC [dimethyl carbonate] + CCCO
mass density [kg/m3]
Settings	100 kPa	5000 kPa	10000 kPa	15000 kPa	20000 kPa	25000 kPa	30000 kPa	35000 kPa	40000 kPa
288.15 K, x1 = 0.0273	815.28	819.04	822.48	825.78	829.15	832.17	835.17	838.02	840.76
288.15 K, x1 = 0.0506	821.93	825.69	829.18	832.53	835.9	838.98	842.03	844.93	847.68
288.15 K, x1 = 0.0755	829.07	832.88	836.37	839.78	843.2	846.28	849.38	852.29	855.09
288.15 K, x1 = 0.1007	836.26	840.08	843.62	847.03	850.45	853.58	856.69	859.6	862.4
288.15 K, x1 = 0.1495	850.12	853.99	857.54	861.01	864.47	867.61	870.78	873.75	876.61
288.15 K, x1 = 0.2003	864.44	868.36	871.96	875.5	879	882.15	885.32	888.35	891.27
288.15 K, x1 = 0.2529	879.11	883.04	886.7	890.29	893.84	897.05	900.28	903.32	906.24
288.15 K, x1 = 0.2993	891.99	895.97	899.68	903.29	906.83	910.1	913.34	916.38	919.36
288.15 K, x1 = 0.3497	905.81	909.85	913.56	917.23	920.81	924.09	927.39	930.49	933.52
288.15 K, x1 = 0.401	919.74	923.79	927.61	931.33	934.96	938.25	941.6	944.76	947.8
288.15 K, x1 = 0.4509	933.25	937.3	941.17	944.96	948.59	951.93	955.29	958.51	961.56
288.15 K, x1 = 0.5002	946.47	950.58	954.46	958.3	961.98	965.33	968.75	971.97	975.08
288.15 K, x1 = 0.5498	959.76	963.88	967.81	971.66	975.38	978.79	982.22	985.5	988.61
288.15 K, x1 = 0.5996	973.01	977.19	981.12	984.99	988.75	992.17	995.65	998.94	1002.11
288.15 K, x1 = 0.6499	986.28	990.51	994.5	998.42	1002.18	1005.66	1009.15	1012.45	1015.62
288.15 K, x1 = 0.7006	999.56	1003.79	1007.79	1011.77	1015.53	1019.07	1022.61	1025.92	1029.15
288.15 K, x1 = 0.7471	1011.61	1015.85	1019.9	1023.94	1027.7	1031.24	1034.8	1038.16	1041.39
288.15 K, x1 = 0.7989	1025.02	1029.31	1033.41	1037.52	1041.32	1044.87	1048.43	1051.8	1055.05
288.15 K, x1 = 0.8491	1038.04	1042.34	1046.44	1050.56	1054.41	1057.97	1061.59	1065.02	1068.31
288.15 K, x1 = 0.8993	1051.07	1055.38	1059.54	1063.72	1067.56	1071.18	1074.81	1078.24	1081.55
288.15 K, x1 = 0.9249	1057.64	1061.95	1066.12	1070.3	1074.14	1077.81	1081.44	1084.88	1088.19
288.15 K, x1 = 0.9489	1063.77	1068.08	1072.25	1076.44	1080.27	1083.9	1087.54	1091.03	1094.34
288.15 K, x1 = 0.9743	1070.25	1074.61	1078.78	1082.98	1086.81	1090.45	1094.08	1097.53	1100.84
288.15 K, x1 = 1	1076.83	1081.15	1085.32	1089.52	1093.35	1096.99	1100.63	1104.08	1107.4
293.15 K, x1 = 0.0273	811.13	814.85	818.47	821.94	825.23	828.56	831.57	834.42	837.07
293.15 K, x1 = 0.0506	817.67	821.44	825.06	828.58	831.87	835.25	838.27	841.13	843.83
293.15 K, x1 = 0.0755	824.75	828.52	832.19	835.71	839.06	842.44	845.52	848.42	851.14
293.15 K, x1 = 0.1007	831.84	835.66	839.38	842.9	846.25	849.69	852.76	855.68	858.39
293.15 K, x1 = 0.1495	845.58	849.45	853.18	856.75	860.16	863.6	866.73	869.7	872.48
293.15 K, x1 = 0.2003	859.73	863.66	867.43	871.06	874.53	878.01	881.2	884.18	887.03
293.15 K, x1 = 0.2529	874.29	878.27	882.09	885.77	889.3	892.84	896.04	899.12	902.04
293.15 K, x1 = 0.2993	887.05	891.08	894.95	898.64	902.18	905.76	909.02	912.16	915.09
293.15 K, x1 = 0.3497	900.71	904.78	908.71	912.45	916.05	919.68	923	926.2	929.19
293.15 K, x1 = 0.401	914.47	918.61	922.59	926.38	930.03	933.72	937.09	940.3	943.36
293.15 K, x1 = 0.4509	927.86	932.05	936.03	939.87	943.59	947.28	950.71	953.97	957.05
293.15 K, x1 = 0.5002	940.97	945.21	949.24	953.09	956.87	960.6	964.04	967.36	970.51
293.15 K, x1 = 0.5498	954.1	958.38	962.47	966.32	970.1	973.84	977.34	980.72	983.88
293.15 K, x1 = 0.5996	967.18	971.52	975.61	979.51	983.36	987.15	990.65	994.04	997.26
293.15 K, x1 = 0.6499	980.33	984.67	988.81	992.77	996.62	1000.46	1004.03	1007.42	1010.66
293.15 K, x1 = 0.7006	993.49	997.89	1002.08	1006.04	1009.95	1013.8	1017.37	1020.81	1024.12
293.15 K, x1 = 0.7471	1005.43	1009.83	1014.07	1018.08	1022.06	1025.95	1029.53	1032.98	1036.36
293.15 K, x1 = 0.7989	1018.72	1023.17	1027.41	1031.43	1035.41	1039.31	1042.94	1046.46	1049.84
293.15 K, x1 = 0.8491	1031.57	1036.07	1040.37	1044.44	1048.43	1052.38	1056.08	1059.59	1063.05
293.15 K, x1 = 0.8993	1044.49	1049.04	1053.34	1057.42	1061.47	1065.42	1069.12	1072.65	1076.12
293.15 K, x1 = 0.9249	1051	1055.55	1059.86	1063.94	1067.99	1071.94	1075.65	1079.23	1082.7
293.15 K, x1 = 0.9489	1057.07	1061.62	1065.93	1070.01	1074.07	1078.02	1081.73	1085.31	1088.8
293.15 K, x1 = 0.9743	1063.49	1068.04	1072.35	1076.43	1080.5	1084.5	1088.21	1091.8	1095.29
293.15 K, x1 = 1	1070.06	1074.62	1078.93	1083.01	1087.08	1091.03	1094.75	1098.34	1101.84
298.15 K, x1 = 0.0273	807.06	810.99	814.7	818.11	821.44	–	–	–	–
298.15 K, x1 = 0.0506	813.55	817.52	821.28	824.74	828.12	–	–	–	–
298.15 K, x1 = 0.0755	820.52	824.54	828.31	831.81	835.25	–	–	–	–
298.15 K, x1 = 0.1007	827.5	831.52	835.34	838.84	842.29	–	–	–	–
298.15 K, x1 = 0.1495	841.12	845.19	849.06	852.61	856.13	–	–	–	–
298.15 K, x1 = 0.2003	855.15	859.27	863.19	866.8	870.37	–	–	–	–
298.15 K, x1 = 0.2529	869.54	873.66	877.64	881.29	884.88	–	–	–	–
298.15 K, x1 = 0.2993	882.18	886.34	890.38	894.08	897.73	–	–	–	–
298.15 K, x1 = 0.3497	895.71	899.93	904.02	907.77	911.48	–	–	–	–
298.15 K, x1 = 0.401	909.36	913.63	917.77	921.57	925.35	–	–	–	–
298.15 K, x1 = 0.4509	922.58	926.89	931.09	934.95	938.74	–	–	–	–
298.15 K, x1 = 0.5002	935.57	939.93	944.14	948.04	951.89	–	–	–	–
298.15 K, x1 = 0.5498	948.57	952.93	957.19	961.1	–	–	–	–	–
298.15 K, x1 = 0.5996	961.54	965.95	970.21	974.17	–	–	–	–	–
298.15 K, x1 = 0.6499	974.52	978.92	983.24	987.25	–	–	–	–	–
298.15 K, x1 = 0.7006	987.56	992.01	996.39	1000.44	–	–	–	–	–
298.15 K, x1 = 0.7471	999.38	1003.88	1008.26	1012.37	–	–	–	–	–
298.15 K, x1 = 0.7989	1012.54	1017.09	1021.53	1025.64	–	–	–	–	–
298.15 K, x1 = 0.8491	1025.27	1029.83	1034.32	1038.48	–	–	–	–	–
298.15 K, x1 = 0.8993	1038.07	1042.62	1047.12	1051.28	–	–	–	–	–
298.15 K, x1 = 0.9249	1044.52	1049.07	1053.57	1057.78	–	–	–	–	–
298.15 K, x1 = 0.9489	1050.53	1055.08	1059.58	1063.79	–	–	–	–	–
298.15 K, x1 = 0.9743	1056.89	1061.44	1065.95	1070.16	–	–	–	–	–
298.15 K, x1 = 1	1063.45	1068	1072.51	1076.72	–	–	–	–	–
